Read-outs that look alike come from different tables or passages of the source.
Legend:
[1] = tested on: A2780 P (ovarian cancer cells); assay: Cellular uptake of Pt (FAAS), A2780 P; format: cell-based, human; details: for Uptake of Pt complexes into A2780 P: 10 μM
Description: Cellular uptake of Pt compounds was measured in SKBR, SW480, A549, A2780P and CH1 cells. […] The cell monolayers at the end of the incubation with the Pt complexes were washed (twice) with ice-cold phosphate buffered saline (PBS), trypsinized and harvested into cold (4° C.) PBS. Cell suspensions were centrifuged and the pellets were stored in PBS at −80° C. until assayed. Afterward, the pellets were digested by high pressure microwave mineralization and Pt content was determined by flameless atomic absorption spectrophotometry (FAAS). The results of cellular Pt uptake were corrected for adsorption effects. All experiments were made in triplicate.^17

[2] = tested on: SKBR (breast cancer cells); assay: Cellular uptake of Pt (FAAS), SKBR; format: cell-based; details: 72 hours treatment; for Uptake of Pt complexes into SKBR: 10 μM
Description: Cellular uptake of Pt compounds was measured in SKBR, SW480, A549, A2780P and CH1 cells. The cells were seeded in 60 mm tissue culture dishes with 10 mL of their respective medium and after overnight incubation, the cells were treated with the Pt complexes for 72 h at 10 μM concentration. The cell monolayers at the end of the incubation with the Pt complexes were washed (twice) with ice-cold phosphate buffered saline (PBS), trypsinized and harvested into cold (4° C.) PBS. Cell suspensions were centrifuged and the pellets were stored in PBS at −80° C. until assayed. Afterward, the pellets were digested by high pressure microwave mineralization and Pt content was determined by flameless atomic absorption spectrophotometry (FAAS). The results of cellular Pt uptake were corrected for adsorption effects. All experiments were made in triplicate.^17

[3] = tested on: ovarian cancer cell line A2780 P; assay: MTS in vitro cytotoxicity, A2780 P; format: cell-based, human; details: 72 hours; for IC50: MTS
Description: (§1) Cells were cultured in the appropriate media. […] In order to retain resistance 1 μM cisplatin was added to the media of the A2780 cisR cells every third passage. A2780 cisR cells are resistant to cisplatin through a combination of decreased uptake, enhanced DNA repair/tolerance, and elevated reduced glutathione levels
(§2) All cells were kept in a humidified atmosphere with 5% CO2 at 37° C.; cells from confluent monolayers were removed from flasks by trypsin/EDTA solution and their viability determined by the trypan blue exclusion test.
(§3) Cell growth was determined by the [3-(4,5-dimethylthiazol-2-yl)-5-(3-carboxymethoxyphenyl)-2-(4-sulfophenyl)-2H-tetrazolium, inner salt, (MTS test, Promega, Southampton, UK), a colorimetric assay based on the ability of the viable cells to reduce a soluble yellow tetrazolium salt to blue formazan. 10,000 ovarian cancer cells or 3,000 fibroblast cells for example were seeded per well onto 96-well plates in 100 μl of the appropriate culture medium. 24 hr after sowing the cells, the media was removed and the cells were treated by adding 100 μl of the compound media solutions at the appropriate concentrations. cis-[Pt(NH3)2(malSAHA−2H)], cisplatin and cis-[Pt(NH3)2(mal)] were prepared freshly in cell culture media. […] The maximum percentage of dmso present in any well was less than 0.1% (v/v). cis-[Pt(NH3)2(malBel—2H)], belinostat and malbelinostat were freshly prepared in dimethyl formamide (DMF) and diluted in culture media prior to the MTS assay. The maximum percentage of DMF present in any well was 0.5% (v/v). A range of concentrations between 1 μM and 100 μM was used.
(§4) After 72 hr of treatment, 20 μl of the MTS reagent was added to each well and the plates incubated for 2 hr at 37° C. […] The percentages of surviving cells relative to untreated controls were determined.

[4] = tested on: cisplatin resistant ovarian cancer cell line A2780 cisR; assay: MTS in vitro cytotoxicity, A2780 cisR; format: cell-based, human; details: 72 hours; for IC50: MTS
Description: as §1, §2, §3, §4

[5] = tested on: non-tumorigenic human dermal fibroblast cell line (NHDF); assay: MTS in vitro cytotoxicity, NHDF; format: cell-based; details: 72 hours; for IC50: MTS
Description: In addition Normal Neonatal Human Dermal Fibroblast, NHDF, cells were cultured in Fibroblast Basal Medium (FBM®, Clonetics, Walkersville, USA) supplemented with hFGF-B, insulin, 5% FBS and gentamicin/amphotericin-B (FGM®-2 SingleQuots, Clonetics, Walkersville, USA).
as §2, §3, §4

DNA in A2780 P cells = assay: Pt binding to DNA in cultured cells (ICP-MS), A2780 P; format: cell-based, human; details: 4 hours of cell treatment; for DNA-bound Pt in A2780 P: 40 μM of Pt complexes
Description: Pt DNA binding of Pt complexes was measured in SW480 cells (colon cancer) and CH1 cells (lymphoma) or alternatively A2780 P and A2780 cisR cells (sensitive and resistant to cisplatin respectively). The cells were seeded in 60 mm tissue culture dishes with 10 ml of their respective medium. After overnight incubation the medium was removed and replaced with 10 ml of the respective medium containing a platinum complex giving a final concentration of 43 or 40 μM depending on the experiment. The cells were incubated with a given Pt complex for either 2 or 4 h depending on the experiment. The cells were trypsinised and centrifuged. The supernantant was removed and the cells washed twice with 1×PBS and centrifuged. The pellet was re-suspended in DNA buffer to which Proteinase K (20 mg/mL) and 10% SDS were added. After a gentle shake and incubation at 45° C. for two hours, RNAse (100 mg/mL) was added and the cells were incubated at 37° C. overnight. The volume of supernatant was noted and an equal volume of phenol was added.
The resulting mixture was shook for 10 min, then centrifuged for 10 min at 10° C. The supernatant was transferred into a new centrifuge tube (15 ml) and the volume was noted. To this was added an equal volume of phenol and chloroform/isoamylalcohol (24:1). The resulting mixture was shook for 10 min, then centrifuged for 10 min at 10° C. (3000 RPM). The supernatant was transferred into a new centrifuge tube (15 mL) and the volume was noted. To this was added an equal volume of chloroform. The resulting mixture was shook for 10 min, then centrifuged for 10 min at 10° C. The supernatant was transferred into a new centrifuge tube (15 mL) and the volume was noted. To this was added a volume that is 1/10 of the supernatant of 3 M sodium acetate (Ph 5.2) and three times the volume of cold 100% isopropanol (from freezer). The solution was shook gently until the DNA is precipitated. […] The absorbance of the DNA by was measured by UV spectrophotometry at 260 nm and 280 nm and the concentration of DNA calculated. Platinum bound to DNA was determined by ICP-MS.

[6] = Table 1, read-out: IC50 values against A2780 P
[7] = Table 1, read-out: IC50 values against A2780cisR
[8] = Table 1, read-out: IC50 values against NHDF
[9] = Table 5, read-out: IC50 (μM) ± S.E.M. against A2780P
[10] = Table 5, read-out: IC50 (μM) ± S.E.M. against A2780CisR
[11] = Table 5, read-out: IC50 (μM) ± S.E.M. against NHDF

Compound	Uptake of Pt complexes into A2780 P ([1]; 72 hours treatment)	Uptake of Pt complexes into SKBR [2]	uptake by cancer cells compared with cisplatin (in words) ([2]; SKBR, SW480, A549, A2780 P, CH1)	IC50 [3, 6]	IC50 [4, 7]	IC50 [5, 8]	selectivity for cancer cell lines over normal cell line NHDF ([5]; cytotoxicity)	Uptake of Pt complexes into A2780 P ([1]; 24 hours treatment)	DNA-bound Pt in A2780 P (DNA in A2780 P cells)	IC50 [3, 9]	IC50 [4, 10]	IC50 [5, 11]	uptake by cancer cells (in words) ([1]; 24 hours treatment, A2780 P and A2780 cisR)	DNA binding in A2780 P compared with cisplatin (in words) (DNA in A2780 P cells)	selectivity for A2780 P over normal cell line NHDF ([3]; cytotoxicity)	activity against cisplatin resistant A2780 cisR (in words) ([4]; cytotoxicity)
[NH2][Pt]1([NH2])[O]C(=O)C(Cc2ccc(NC(=O)CCCCCCC(=O)NO)cc2)C(=O)[O]1 [cis-[Pt(NH3)2(malSAHA−2H)], cis-[Pt(NH3)2(malSAHA−2H)].3H2O]	5535 ± 865 pmol Pt/2 × 10^6 cell	6568 ± 312 pmol Pt/2 × 10^6 cell	taken up by cancer cells after 72 hours treatment and to a greater extent than cisplatin	9 ± 3.1 µM	70 ± 3.5 µM	83 ± 7.6 µM	displays selectivity for cancer cell lines over representative normal cell line NHDF	–	–	–	–	–	–	–	–	–
N.N.[Cl][Pt][Cl] [cisplatin, cis-[Pt^II(NH3)2Cl2], reference compound]	612.25 ± 107.75 pmol Pt/2 × 10^6 cell	876.25 ± 70.55 pmol Pt/2 × 10^6 cell	–	2.9 ± 0.1 µM	28.5 ± 1.5 µM	10 ± 1.8 µM	–	290 ± 35 pmol Pt/2 × 10^6 cell	200 · 10^−15 ± 60 moles of Pt/μg of DNA	1.3 ± 0.1 µM	9.8 ± 1 µM	2.4 ± 0.6 µM	–	–	–	–
[NH2][Pt]1([NH2])[O]C(=O)C(Cc2ccc(NS(=O)(=O)c3ccc(/C=C/C(=O)NO)cc3)cc2)C(=O)[O]1 [cis-[Pt(NH3)2(malBel−2H)], cis-[Pt(NH3)2(malBel−2H)].1.5H2O]	–	–	–	–	–	–	–	154 ± 10 pmol Pt/2 × 10^6 cell	5,175 · 10^−15 ± 27 moles of Pt/μg of DNA	7.6 ± 0.3 µM	11.7 ± 0.9 µM	33.9 ± 2 µM	is taken up by cancer cells after 24 hours treatment	binds DNA in A2780 P and A2780 cisR cancer cells and to a greater extent than cisplatin	displays selectivity for A2780 P cancer cell line over representative normal cell line NHDF	retains activity against A2780 cisR cell line
